# Reference: patent publication US20110288086A1, “POLYCYCLIC QUINAZOLINES, PREPARATION THEREOF, AND USE THEREOF” (priority 2010, published 2011)
# Where a name gives a salt, the structure may show the parent alone.
# What was measured:
# [1] = tested on: MDA-MB-435s human breast carcinoma cells; experiment: Tumor cell IC50, CCK-8 kit, MDA-MB-435s; assay type: cell-based; settings: 435s cells
# Source text: (§1) The inhibitory activities of the compounds on tumor cells (IC50) in vitro
# (§2) The IC50 (IC50, unit: μg/ml) values of the compounds on Hut78 T-Lymphocytic Leukemia cells, Jurkat E6-1 human T-cell lymphoma, PANC-1 human pancreatic cancer cells, A549 human lung cancer cells, K562 human chronicity marrow leukemic cells, Hep3B2. 1-7 human hepatoma carcinoma cells, MDA-MB-435s human breast carcinoma cells, Colo320 human rectal cancer cells, PC-3 human carcinoma of prostate, and HepG2 human hepatoma carcinoma cells were determined using a CCK-8 kit. Erlotinib hydrochloride was used as the positive control drug.
# [2] = tested on: Hep3B2.1-7 human hepatoma carcinoma cells; experiment: Tumor cell inhibition ratio, CCK-8 kit, Hep3B; settings: read-out: Antiproliferative effect (inhibition ratio) Hep3B
# Source text: (§3) The inhibitory activities of the compounds on tumor cells in vitro
# [3] = tested on: Jurkat E6-1 human T-cell lymphoma; experiment: Tumor cell IC50, CCK-8 kit, Jurkat E6-1; assay type: cell-based; settings: E6-1 cells
# Source text: as §1, §2
# [4] = tested on: PANC-1 human pancreatic cancer cells; experiment: Tumor cell inhibition ratio, CCK-8 kit, PANC-1; settings: PANC-1, read-out: Antiproliferative effect (inhibition ratio) PANC-1
# Source text: as §3
# [5] = tested on: Colo320 human rectal cancer cells; experiment: Tumor cell IC50, CCK-8 kit, Colo320; assay type: cell-based; settings: COLO 320
# Source text: as §1, §2
# [6] = tested on: Hut78 T-Lymphocytic Leukemia cells; experiment: Tumor cell IC50, CCK-8 kit, Hut78; assay type: cell-based; settings: Homo sapiens, Hut-78 cells
# Source text: as §1, §2
# [7] = tested on: K562 human chronicity marrow leukemic cells; experiment: Tumor cell inhibition ratio, CCK-8 kit, K562; settings: K562, read-out: Antiproliferative effect (inhibition ratio) K562
# Source text: as §3
# [8] = target: EGFR tyrosine kinase (Homo sapiens, UniProt P00533); experiment: EGFR tyrosine kinase inhibition in vitro (Invitrogen EGFR inhibitor screening kit PV3193)
# Source text: The inhibitory activities of EGFR tyrosine kinase in vitro
# Erlotinib hydrochloride was used as a positive control drug.
# [9] = tested on: A549 human lung cancer cells; experiment: Tumor cell inhibition ratio, CCK-8 kit, A549; settings: A549, read-out: Antiproliferative effect (inhibition ratio) A549
# Source text: as §3
# [10] = tested on: PC-3 human carcinoma of prostate; experiment: Tumor cell inhibition ratio, CCK-8 kit, PC-3; settings: read-out: Antiproliferative effect (inhibition ratio) PC-3
# Source text: as §3
# [11] = tested on: K562 human chronicity marrow leukemic cells; experiment: Tumor cell IC50, CCK-8 kit, K562; assay type: cell-based
# Source text: as §1, §2
# [12] = tested on: Colo320 human rectal cancer cells; experiment: Tumor cell inhibition ratio, CCK-8 kit, Colo320; settings: COLO 320, read-out: Antiproliferative effect (inhibition ratio) Colo320
# Source text: as §3
# [13] = tested on: PC-3 human carcinoma of prostate; experiment: Tumor cell IC50, CCK-8 kit, PC-3; assay type: cell-based; settings: PC-3 cells
# Source text: as §1, §2
# [14] = tested on: PANC-1 human pancreatic cancer cells; experiment: Tumor cell IC50, CCK-8 kit, PANC-1; assay type: cell-based; settings: PANC-1 cells
# Source text: as §1, §2
# [15] = tested on: MDA-MB-435s human breast carcinoma cells; experiment: Tumor cell inhibition ratio, CCK-8 kit, MDA-MB-435s; settings: read-out: Antiproliferative effect (inhibition ratio) 435s
# Source text: as §3
# [16] = tested on: Jurkat E6-1 human T-cell lymphoma; experiment: Tumor cell inhibition ratio, CCK-8 kit, Jurkat E6-1; settings: Jurkat E6.1, read-out: Antiproliferative effect (inhibition ratio) E6-1
# Source text: as §3
# [17] = tested on: A549 human lung cancer cells; experiment: Tumor cell IC50, CCK-8 kit, A549; assay type: cell-based
# Source text: as §1, §2
# [18] = tested on: Hep3B2. 1-7 human hepatoma carcinoma cells; experiment: Tumor cell IC50, CCK-8 kit, Hep3B; assay type: cell-based
# Source text: as §1, §2
# [19] = target: T1, aurora kinase B (Homo sapiens, UniProt Q96GD4); experiment: Aurora kinase B inhibition in vitro (Invitrogen aurora kinase screening kit PV3174); assay type: biochemical
# T1 construct: purchased Invitrogen PV3174
# [20] = tested on: Hut78 T-Lymphocytic Leukemia cells; experiment: Tumor cell inhibition ratio, CCK-8 kit, Hut78; settings: Homo sapiens, HuT78, read-out: Antiproliferative effect (inhibition ratio) Hut-78
# Source text: as §3
# T1 sequence (Q96GD4 whole entry): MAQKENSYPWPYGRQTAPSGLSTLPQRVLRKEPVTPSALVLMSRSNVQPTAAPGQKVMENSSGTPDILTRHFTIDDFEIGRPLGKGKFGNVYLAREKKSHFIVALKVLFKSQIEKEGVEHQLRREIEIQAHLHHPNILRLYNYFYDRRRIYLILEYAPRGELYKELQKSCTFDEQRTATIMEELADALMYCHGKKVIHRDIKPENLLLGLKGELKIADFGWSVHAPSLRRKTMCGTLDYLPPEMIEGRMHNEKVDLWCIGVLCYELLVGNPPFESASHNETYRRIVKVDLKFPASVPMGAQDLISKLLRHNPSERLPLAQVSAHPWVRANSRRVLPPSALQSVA
# EGFR tyrosine kinase, sequence (P00533 25-1210): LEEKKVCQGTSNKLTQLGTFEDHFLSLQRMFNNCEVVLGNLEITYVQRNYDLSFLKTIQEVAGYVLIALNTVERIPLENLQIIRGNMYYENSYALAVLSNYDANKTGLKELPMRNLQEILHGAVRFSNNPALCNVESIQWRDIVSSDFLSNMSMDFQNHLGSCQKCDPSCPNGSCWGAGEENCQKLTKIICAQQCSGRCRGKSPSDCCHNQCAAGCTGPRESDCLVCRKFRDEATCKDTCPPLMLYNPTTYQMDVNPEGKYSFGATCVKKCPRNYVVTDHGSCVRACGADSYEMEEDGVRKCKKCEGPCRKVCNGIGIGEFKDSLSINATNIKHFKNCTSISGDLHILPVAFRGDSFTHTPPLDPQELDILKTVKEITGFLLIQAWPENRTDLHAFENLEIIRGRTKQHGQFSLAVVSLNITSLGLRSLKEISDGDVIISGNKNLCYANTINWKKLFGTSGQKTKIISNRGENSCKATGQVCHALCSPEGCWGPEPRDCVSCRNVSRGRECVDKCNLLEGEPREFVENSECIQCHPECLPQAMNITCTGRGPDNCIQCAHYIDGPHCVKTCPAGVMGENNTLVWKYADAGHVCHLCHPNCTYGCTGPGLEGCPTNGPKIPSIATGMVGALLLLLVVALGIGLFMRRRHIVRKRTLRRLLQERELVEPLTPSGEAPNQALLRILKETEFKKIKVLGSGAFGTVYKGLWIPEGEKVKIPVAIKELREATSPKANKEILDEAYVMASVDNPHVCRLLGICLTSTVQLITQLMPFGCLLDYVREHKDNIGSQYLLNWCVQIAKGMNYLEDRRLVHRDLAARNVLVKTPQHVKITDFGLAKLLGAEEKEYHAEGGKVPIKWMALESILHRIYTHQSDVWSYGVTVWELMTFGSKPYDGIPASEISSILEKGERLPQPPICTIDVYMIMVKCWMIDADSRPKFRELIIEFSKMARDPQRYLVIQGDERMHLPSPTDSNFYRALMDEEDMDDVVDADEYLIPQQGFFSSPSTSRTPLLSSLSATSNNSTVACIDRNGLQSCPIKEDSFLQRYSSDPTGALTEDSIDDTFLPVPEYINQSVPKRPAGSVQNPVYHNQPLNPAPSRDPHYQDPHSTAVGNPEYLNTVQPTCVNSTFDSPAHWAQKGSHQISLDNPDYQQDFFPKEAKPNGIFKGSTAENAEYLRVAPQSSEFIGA
The inhibition ratio of the compound on EGFR(%) ([8]; 40 μM),The inhibition ratio of the compound on EGFR(%) ([8]; 200 μM),The inhibition ratio of the compound on Aurora B(%) ([19]; 40 μM),The inhibition ratio of the compound on Aurora B(%) ([19]; 200 μM),Compound,inhibition at 10 µM [2] [%],inhibition at 100 µM [2] [%],inhibition at 10 µM [4] [%],inhibition at 100 µM [4] [%],inhibition at 10 µM [7] [%],inhibition at 100 µM [7] [%],inhibition at 10 µM [9] [%],inhibition at 100 µM [9] [%],inhibition at 10 µM [10] [%],inhibition at 100 µM [10] [%],inhibition at 10 µM [12] [%],inhibition at 100 µM [12] [%],inhibition at 10 µM [15] [%],inhibition at 100 µM [15] [%],inhibition at 10 µM [16] [%],inhibition at 100 µM [16] [%],also measured
55.2,93.8,48.5,93.8,"Br.COCCOc1cc2c(cc1OCCOC)C1=Nc3cccc(N)c3CN1C=N2 [Compound V-6, 9-amino-2,3-bis(2-methoxyethoxy)-8H-quinazolino[4,3-b]quinazoline hydrobromide trihydrate]",51.3,84.7,64.2,98.6,64.1,82.8,63,97.3,53.4,84.4,73.5,99.2,50.4,87,61.1,95.3,IC50 [1]: 33.5 µg/mL; IC50 [3]: 30.5 µg/mL; IC50 [5]: 29.8 µg/mL; IC50 [6]: 58.8 µg/mL; IC50 [11]: 46.4 µg/mL; IC50 [13]: 33 µg/mL; IC50 [14]: 16.8 µg/mL; IC50 [17]: 3.68 µg/mL; IC50 [18]: 15.6 µg/mL; inhibition at 10 µM [20]: 69%; inhibition at 100 µM [20]: 91.9%
52.3,95.6,32.3,96.4,"COCCOc1cc2c(cc1OCCOC)C1=Nc3cccc(O)c3CN1C=N2 [Compound V-8, 9-hydroxy-2,3-bis(2-methoxyethoxy)-8H-quinazolino[4,3-b]quinazoline]",52.4,87.3,41.5,89.8,52.4,92.2,52.8,80,45.2,94,64.5,94.8,55,93.7,44,85.4,IC50 [1]: 27.6 µg/mL; IC50 [3]: 8.11 µg/mL; IC50 [5]: 29.8 µg/mL; IC50 [6]: 53.1 µg/mL; IC50 [11]: 63.1 µg/mL; IC50 [13]: 9.9 µg/mL; IC50 [14]: 21.2 µg/mL; IC50 [17]: 30 µg/mL; IC50 [18]: 33.1 µg/mL; inhibition at 10 µM [20]: 35.6%; inhibition at 100 µM [20]: 75.9%
56.4,85.6,53.5,96.7,"COCCOc1cc2c(cc1OCCOC)C1=Nc3cccc(NC(C)=O)c3CN1C=N2 [Compound V-11, N-{2,3-bis(2-methoxyethoxy)-8H-quinazolino[4,3-b]quinazoline}acetamide]",57.1,82.8,57.9,91.3,50.5,86,63.1,99.2,55.1,89.7,41.6,96.3,41,89.5,41.6,90.8,IC50 [1]: 6.79 µg/mL; IC50 [3]: 39.9 µg/mL; IC50 [5]: 34.6 µg/mL; IC50 [6]: 26.8 µg/mL; IC50 [11]: 40.6 µg/mL; IC50 [13]: 36.8 µg/mL; IC50 [14]: 6.72 µg/mL; IC50 [17]: 4.64 µg/mL; IC50 [18]: 26.1 µg/mL; inhibition at 10 µM [20]: 31%; inhibition at 100 µM [20]: 72.8%
25.4,70.6,26.4,84.3,"COCCOc1cc2c(cc1OCCOC)C1=Nc3cc(C#N)ccc3CN1C=N2 [Compound V-17, 11-cyano-2,3-bis(2-methoxyethoxy)-8H-quinazolino[4,3-b]quinazoline]",58.4,85.2,19.6,56.8,19.1,25.2,49.9,87.1,28.1,91.7,9.66,26.1,37.5,95.5,33.7,79.6,inhibition at 10 µM [20]: 35.9%; inhibition at 100 µM [20]: 45.3%
33.2,78.8,23.2,76.9,"COCCOc1cc2c(cc1OCCOC)C1=Nc3cc(O)ccc3CN1C=N2 [Compound V-18, 11-hydroxy-2,3-bis(2-methoxyethoxy)-8H-quinazolino[4,3-b]quinazoline]",40.1,77.5,30,84.4,10.4,59,37.8,78.6,37,76.2,38.1,75.1,36.6,72.3,44.1,84,inhibition at 10 µM [20]: 19.7%; inhibition at 100 µM [20]: 65.2%
30.6,76.5,10.6,66.5,"C#Cc1cccc2c1CN1C=Nc3cc(OC)c(OC)cc3C1=N2 [Compound V-31, 9-ethynyl-2,3-dimethoxy-8H-quinazolino[4,3-b]quinazoline]",31.9,62.2,46.5,96.4,37.5,85,28.8,32.8,29.4,81.7,30.8,92.8,50.6,85.1,21.8,84.2,inhibition at 10 µM [20]: 41.1%; inhibition at 100 µM [20]: 72.2%
,,,,"C#Cc1cccc(Nc2ncnc3cc(OCCOC)c(OCCOC)cc23)c1 [Erlotinib hydrochloride, reference compound]",,,,,,,,,,,,,,,,,IC50 [1]: 13.1 µg/mL; IC50 [3]: 35.6 µg/mL; IC50 [5]: 40.4 µg/mL; IC50 [6]: 43.2 µg/mL; IC50 [11]: 39.9 µg/mL; IC50 [13]: 54.2 µg/mL; IC50 [14]: 32.5 µg/mL; IC50 [17]: 19.3 µg/mL; IC50 [18]: 62.3 µg/mL
